Source: patent US9403835B2, “Tetraaza-cyclopenta[a]indenyl and their use as positive allosteric modulators” (Merck Patent GmbH, priority 2011, dated 2016)

biological target: T1, muscarinic M1 receptor (Homo sapiens, UniProt P11229); assay: M1 PAM Assay (IP-One HTRF, IP1 in M1-CHO cells with EC20 of acetylcholine); type: cell-based; settings: 1 hour at room temperature, IP1 readout
T1 construct: expressed in transfected cells; host or cells: CHO (M1-CHO cells)
T1 sequence (P11229 1-460): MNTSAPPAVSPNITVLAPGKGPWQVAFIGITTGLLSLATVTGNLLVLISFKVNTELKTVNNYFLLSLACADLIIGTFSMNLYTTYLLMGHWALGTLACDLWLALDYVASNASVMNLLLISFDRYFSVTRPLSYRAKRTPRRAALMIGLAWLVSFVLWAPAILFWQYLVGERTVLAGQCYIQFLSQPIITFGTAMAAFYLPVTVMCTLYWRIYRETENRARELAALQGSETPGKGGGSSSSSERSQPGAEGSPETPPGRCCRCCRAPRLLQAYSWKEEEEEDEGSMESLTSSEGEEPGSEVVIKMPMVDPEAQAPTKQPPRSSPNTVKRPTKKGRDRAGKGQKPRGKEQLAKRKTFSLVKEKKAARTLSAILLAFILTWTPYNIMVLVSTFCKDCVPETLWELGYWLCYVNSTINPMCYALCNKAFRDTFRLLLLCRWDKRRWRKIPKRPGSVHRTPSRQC
Protocol: M1-CHO cells are plated in culture medium (HAM's F12, P/S, 10% FCS) on the day before the experiment with 10 000 cells/well in a 384 well plate (3750 Corning White 384 w plate with lid). On the day of experiment, cells are washed with PBS and IPone buffer is added (glucose 5.5 mM, NaCl 146 mM, MgCl2 0.5 mM, HEPES 10 mM, LiCl 50 mM, CaCl2 1 mM, KCl 4.2 mM). Then diluted compounds (1% DMSO final concentration) are added together with EC20 of acetylcholine and incubated with the cells for 1 hour at room temperature. The intracellular concentration of IP1 is then measured using the IP-One HTRF assay from Cisbio.

Row | SMILES | EC50
1 | Cc1cn2nc3c(c2nc1C)CN(C(=O)c1ccccc1OCCN(C)C)C3 [Example 32, [2-(2-dimethylamino-ethoxy)-phenyl]-(5,6-dimethyl-1H,3H-2,4,7a,8-tetraaza-cyclopenta[a]inden-2-yl)-methanone] | 1000 to 2000 nM
2 | Cc1nc2c3c(nn2c(C)c1C)CN(C(=O)c1ccccc1OC1CCN(C)CC1)C3 [Example 4, [2-(1-methyl-piperidin-4-yloxy)-phenyl]-(5,6,7-trimethyl-1H,3H-2,4,7a,8-tetraaza-cyclopenta[a]inden-2-yl)-methanone] | 200 to 1000 nM
3 | CCOc1ccccc1C(=O)N1Cc2nn3cc(Cl)cnc3c2C1 [Example 46, (6-chloro-1H,3H-2,4,7a,8-tetraaza-cyclopenta[a]inden-2-yl)-(2-ethoxy-phenyl)-methanone] | 1000 to 2000 nM
4 | CCOc1ccccc1C(=O)N1Cc2nn3c(C)c(CC)c(C)nc3c2C1 [Example 27, (2-ethoxy-phenyl)-(6-ethyl-5,7-dimethyl-1H,3H-2,4,7a,8-tetraaza-cyclopenta[a]inden-2-yl)-methanone] | 1000 to 2000 nM
5 | Cc1nc2c3c(nn2c(C)c1C)CN(C(=O)c1ccccc1OCc1ccccc1)C3 [Example 29, (2-benzyloxy-phenyl)-(5,6,7-trimethyl-1H,3H-2,4,7a,8-tetraaza-cyclopenta[a]inden-2-yl)-methanone] | 1000 to 2000 nM
6 | CSc1ccccc1C(=O)N1Cc2nn3c(C)c(C)c(C)nc3c2C1 [Example 25, (2-methylsulfanyl-phenyl)-(5,6,7-trimethyl-1H,3H-2,4,7a,8-tetraaza-cyclopenta[a]inden-2-yl)-methanone] | 200 to 1000 nM
7 | Cc1nc2c3c(nn2c(C)c1C)CN(C(=O)c1ccccc1N1CCN(C)CC1)C3 [Example 36, [2-(4-methyl-piperazin-1-yl)-phenyl]-(5,6,7-trimethyl-1H,3H-2,4,7a,8-tetraaza-cyclopenta[a]inden-2-yl)-methanone] | 1000 to 2000 nM
8 | CCOc1ccc(F)cc1C(=O)N1Cc2nn3c(C)c(C)c(C)nc3c2C1 [Example 13, (2-ethoxy-5-fluoro-phenyl)-(5,6,7-trimethyl-1H,3H-2,4,7a,8-tetraaza-cyclopenta[a]inden-2-yl)-methanone] | 200 to 1000 nM
9 | Cc1nc2c3c(nn2c(C)c1Cl)CN(C(=O)c1ccccc1OC(C)C)C3 [Example 9, (6-chloro-5,7-dimethyl-1H,3H-2,4,7a,8-tetraaza-cyclopenta[a]inden-2-yl)-(2-isopropoxy-phenyl)-methanone] | 200 to 1000 nM
10 | Cc1nc2c3c(nn2c(C)c1C)CN(C(=O)c1ccccc1OC(C)C)C3 [Example 26, (2-isopropoxy-phenyl)-(5,6,7-trimethyl-1H,3H-2,4,7a,8-tetraaza-cyclopenta[a]inden-2-yl)-methanone] | 200 to 1000 nM
11 | Cc1nc2c3c(nn2c(C)c1Cl)CN(C(=O)c1ccc(F)cc1OCCn1cccn1)C3 [Example 18, (6-chloro-5,7-dimethyl-1H,3H-2,4,7a,8-tetraaza-cyclopenta[a]inden-2-yl)-[4-fluoro-2-(2-pyrazol-1-yl-ethoxy)-phenyl]-methanone] | 200 to 1000 nM
12 | CCCCOc1ccccc1C(=O)N1Cc2nn3c(C)c(C)c(C)nc3c2C1 [Example 21, (2-butoxy-phenyl)-(5,6,7-trimethyl-1H,3H-2,4,7a,8-tetraaza-cyclopenta[a]inden-2-yl)-methanone] | 200 to 1000 nM
13 | CC(=O)Oc1ccccc1C(=O)N1Cc2nn3c(C)c(C)c(C)nc3c2C1 [Example 23, acetic acid 2-(5,6,7-trimethyl-1H,3H-2,4,7a,8-tetraaza-cyclopenta[a]indene-2-carbonyl)-phenyl ester] | 200 to 1000 nM
14 | CCOc1ccccc1C(=O)N1Cc2nn3cc(C)c(C)nc3c2C1 [Example 31, (5,6-Dimethyl-1H,3H-2,4,7a,8-tetraaza-cyclopenta[a]inden-2-yl)-(2-ethoxy-phenyl)-methanone] | 1000 to 2000 nM
15 | Cc1nc2c3c(nn2c(C)c1Cl)CN(C(=O)c1ccccc1OC1CCOCC1)C3 [Example 35, (6-chloro-5,7-dimethyl-1H,3H-2,4,7a,8-tetraaza-cyclopenta[a]inden-2-yl)-[2-(tetrahydro-pyran-4-yloxy)-phenyl]-methanone] | 1000 to 2000 nM
16 | Cc1cn2nc3c(c2nc1C)CN(C(=O)c1ccccc1N1CCCN(C)CC1)C3 [Example 33, (5,6-dimethyl-1H,3H-2,4,7a,8-tetraaza-cyclopenta[a]inden-2-yl)-[2-(4-methyl-[1,4]diazepan-1-yl)-phenyl]-methanone] | 1000 to 2000 nM
17 | Cc1cnc2c3c(nn2c1C)CN(C(=O)c1ccccc1N1CCCN(C)CC1)C3 [Example 41, (6,7-dimethyl-1H,3H-2,4,7a,8-tetraaza-cyclopenta[a]inden-2-yl)-[2-(4-methyl-[1,4]diazepan-1-yl)-phenyl]-methanone] | 1000 to 2000 nM
18 | Cc1nc2c3c(nn2c(C)c1Cl)CN(C(=O)c1ccccc1OC1CCNCC1)C3 [Example 3, (6-chloro-5,7-dimethyl-1H,3H-2,4,7a,8-tetraaza-cyclopenta[a]inden-2-yl)-[2-(piperidin-4-yloxy)-phenyl]-methanone] | < 200 nM
19 | Cc1nc2c3c(nn2c(C)c1C)CN(C(=O)c1ccccc1-n1cccn1)C3 [Example 39, (2-pyrazol-1-yl-phenyl)-(5,6,7-trimethyl-1H,3H-2,4,7a,8-tetraaza-cyclopenta[a]inden-2-yl)-methanone] | 1000 to 2000 nM
20 | Cc1nc2c3c(nn2c(C)c1C)CN(C(=O)c1ccccc1OCCC1CCCCC1)C3 [Example 40, [2-(2-cyclohexyl-ethoxy)-phenyl]-(5,6,7-trimethyl-1H,3H-2,4,7a,8-tetraaza-cyclopenta[a]inden-2-yl)-methanone] | 1000 to 2000 nM
21 | Cc1nc2c3c(nn2c(C)c1C)CN(C(=O)c1ccccc1C(F)(F)F)C3 [Example 43, (2-trifluoromethyl-phenyl)-(5,6,7-trimethyl-1H,3H-2,4,7a,8-tetraaza-cyclopenta[a]inden-2-yl)-methanone] | 1000 to 2000 nM
22 | CCNc1ccccc1C(=O)N1Cc2nn3c(C)c(C)c(C)nc3c2C1 [Example 37, (2-ethylamino-phenyl)-(5,6,7-trimethyl-1H,3H-2,4,7a,8-tetraaza-cyclopenta[a]inden-2-yl)-methanone] | 1000 to 2000 nM
23 | CCOc1ccccc1C(=O)N1Cc2nn3c(C)c(C)c(C)nc3c2C1 [Example 12, (2-ethoxy-phenyl)-(5,6,7-trimethyl-1H,3H-2,4,7a,8-tetraaza-cyclopenta[a]inden-2-yl)-methanone] | 200 to 1000 nM
24 | Cc1cnc2c3c(nn2c1C)CN(C(=O)c1ccccc1OCCN(C)C)C3 [Example 38, [2-(2-dimethylamino-ethoxy)-phenyl]-(6,7-dimethyl-1H,3H-2,4,7a,8-tetraaza-cyclopenta[a]inden-2-yl)-methanone] | 1000 to 2000 nM
25 | CCOc1ccc(Cl)cc1C(=O)N1Cc2nn3c(C)c(C)c(C)nc3c2C1 [Example 34, (5-chloro-2-ethoxy-phenyl)-(5,6,7-trimethyl-1H,3H-2,4,7a,8-tetraaza-cyclopenta[a]inden-2-yl)-methanone] | 1000 to 2000 nM
26 | Cc1nc2c3c(nn2c(C)c1Cl)CN(C(=O)c1ccccc1OC1CCN(C)CC1)C3 [Example 1, (6-chloro-5,7-dimethyl-1H,3H-2,4,7a,8-tetraaza-cyclopenta[a]inden-2-yl)-[2-(1-methyl-piperidin-4-yloxy)-phenyl]-methanone] | < 200 nM
27 | Cc1nc2c3c(nn2c(C)c1C)CN(C(=O)c1ccccc1Br)C3 [Example 49, (2-bromo-phenyl)-(5,6,7-trimethyl-1H,3H-2,4,7a,8-tetraaza-cyclopenta[a]inden-2-yl)-methanone] | 1000 to 2000 nM
